Reference: ChEMBL document CHEMBL1147642, “Elimination of antibacterial activities of non-peptide luteinizing hormone-releasing hormone (LHRH) antagonists derived from erythromycin A” (Bioorg Med Chem Lett, 2004)
In brackets after ≈: the same amount, converted by molar mass.

Tests used:
[1] = test system: Streptococcus pyogenes; assay: Minimum inhibitory activity against Streptococcus pyogenes EES61; format: functional
[2] = test system: Streptococcus agalactiae; assay: Minimum inhibitory activity against Streptococcus agalactiae CMX 508; format: functional
[3] = test system: Micrococcus luteus; assay: Minimum inhibitory activity against Micrococcus luteus ATCC 9341; format: functional
[4] = molecular target: T1, Gonadotropin-releasing hormone receptor (Homo sapiens, UniProt P30968); assay: Binding affinity against human luteinizing releasing hormone receptor cloned in CHO cells; format: cell-based
T1 sequence (P30968 whole entry): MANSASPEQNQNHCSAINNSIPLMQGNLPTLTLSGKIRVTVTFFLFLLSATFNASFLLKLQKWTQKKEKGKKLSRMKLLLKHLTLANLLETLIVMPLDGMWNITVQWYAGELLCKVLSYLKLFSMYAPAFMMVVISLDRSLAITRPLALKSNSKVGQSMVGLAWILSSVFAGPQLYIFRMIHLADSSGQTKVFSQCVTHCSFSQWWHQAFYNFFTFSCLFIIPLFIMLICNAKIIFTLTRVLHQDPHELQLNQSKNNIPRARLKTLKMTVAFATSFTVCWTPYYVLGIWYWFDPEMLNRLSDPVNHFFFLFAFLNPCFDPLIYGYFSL

[5] = test system: Streptococcus equinus; assay: Minimum inhibitory activity against Streptococcus bovis A-5169; format: functional
[6] = test system: Enterococcus faecium; assay: Minimum inhibitory activity against Enterococcus faecium ATCC 8043; format: functional
[7] = test system: Staphylococcus epidermidis; assay: Minimum inhibitory activity against Staphylococcus epidermidis 3519; format: functional
[8] = test system: Staphylococcus aureus; assay: Minimum inhibitory activity against Staphylococcus aureus ATCC 6538P; format: functional

MIC [1] [µg/mL] | MIC [2] [µg/mL] | MIC [3] [µg/mL] | Ki [4] [nM] | MIC [5] [µg/mL] | MIC [6] [µg/mL] | MIC [7] [µg/mL] | MIC [8] [µg/mL] | Compound
0.78 (≈ 0.796 µM) | 12.5 (≈ 12.8 µM) | 12.5 (≈ 12.8 µM) | 204 | 3.1 (≈ 3.16 µM) | 25 (≈ 25.5 µM) | > 100 | > 100 | CC[C@H]1OC(=O)[C@H](C)[C@@H](OC2C[C@@](C)(OC)[C@@H](O)[C@H](C)O2)[C@H](C)[C@@H](OC2O[C@H](C)C[C@H](N(C)C3CCCCC3)[C@H]2O)[C@@](C)(OC)C[C@@H](C)C(=O)[C@H](C)[C@H]2N(CCc3ccc(Cl)cc3)C(=O)O[C@]12C (some centres undefined)
– | 0.2 (≈ 0.219 µM) | 0.05 (≈ 0.0549 µM) | 191 | 0.2 (≈ 0.219 µM) | 0.1 (≈ 0.11 µM) | 0.39 (≈ 0.428 µM) | 0.39 (≈ 0.428 µM) | CC[C@H]1OC(=O)[C@H](C)[C@@H](OC2C[C@@](C)(OC)[C@@H](O)[C@H](C)O2)[C@H](C)[C@@H](OC2O[C@H](C)C[C@H](N(C)C)[C@H]2O)[C@@](C)(OC)C[C@@H](C)C(=O)[C@H](C)[C@H]2N(CCc3ccc(Cl)cc3)C(=O)O[C@]12C (some centres undefined)
3.1 (≈ 3.1 µM) | 3.1 (≈ 3.1 µM) | 3.1 (≈ 3.1 µM) | 1.51 | 3.1 (≈ 3.1 µM) | 3.1 (≈ 3.1 µM) | > 100 | > 100 | CC[C@H]1OC(=O)[C@H](C)[C@@H](OC2C[C@@](C)(OC)[C@@H](O)[C@H](C)O2)[C@H](C)[C@@H](OC2O[C@H](C)C[C@H](N(C)C3CCCC3)[C@H]2O)[C@@](C)(OC)C[C@@H](C)C(=O)[C@H](C)[C@H]2N(CCc3ccc(Cl)c(Cl)c3)C(=O)O[C@]12C (some centres undefined)
0.1 (≈ 0.111 µM) | 0.05 (≈ 0.0557 µM) | 0.2 (≈ 0.223 µM) | 79.4 | 0.2 (≈ 0.223 µM) | 0.39 (≈ 0.435 µM) | 1.56 (≈ 1.74 µM) | 1.56 (≈ 1.74 µM) | CC[C@H]1OC(=O)[C@H](C)[C@@H](OC2C[C@@](C)(OC)[C@@H](O)[C@H](C)O2)[C@H](C)[C@@H](OC2O[C@H](C)C[C@H](NC)[C@H]2O)[C@@](C)(OC)C[C@@H](C)C(=O)[C@H](C)[C@H]2N(CCc3ccc(Cl)cc3)C(=O)O[C@]12C (some centres undefined)
– | 1.56 (≈ 1.64 µM) | – | 13.2 | – | 1.56 (≈ 1.64 µM) | > 100 | > 100 | CC[C@H]1OC(=O)[C@H](C)[C@@H](OC2C[C@@](C)(OC)[C@@H](O)[C@H](C)O2)[C@H](C)[C@@H](OC2O[C@H](C)C[C@H](N(C)CC3CC3)[C@H]2O)[C@@](C)(OC)C[C@@H](C)C(=O)[C@H](C)[C@H]2N(CCc3ccc(Cl)cc3)C(=O)O[C@]12C (some centres undefined)
0.78 (≈ 0.817 µM) | 0.78 (≈ 0.817 µM) | 3.1 (≈ 3.25 µM) | – | 0.78 (≈ 0.817 µM) | 3.1 (≈ 3.25 µM) | > 100 | > 100 | CC[C@H]1OC(=O)[C@H](C)[C@@H](OC(=O)N2C(=O)OC[C@@H]2C)[C@H](C)[C@@H](O[C@@H]2O[C@H](C)C[C@H](N(C)CC3CC3)[C@H]2O)[C@@](C)(OC)C[C@@H](C)C(=O)[C@H](C)[C@H]2N(CCc3ccc(Cl)c(Cl)c3)C(=O)O[C@]12C
0.78 (≈ 0.808 µM) | 0.78 (≈ 0.808 µM) | 1.56 (≈ 1.62 µM) | 7.59 | 0.78 (≈ 0.808 µM) | 1.56 (≈ 1.62 µM) | 50 (≈ 51.8 µM) | 25 (≈ 25.9 µM) | CC[C@H]1OC(=O)[C@H](C)[C@@H](OC2C[C@@](C)(OC)[C@@H](O)[C@H](C)O2)[C@H](C)[C@@H](OC2O[C@H](C)C[C@H](N(C)C3CCCC3)[C@H]2O)[C@@](C)(OC)C[C@@H](C)C(=O)[C@H](C)[C@H]2N(CCc3ccc(Cl)cc3)C(=O)O[C@]12C (some centres undefined)
0.39 (≈ 0.416 µM) | 0.39 (≈ 0.416 µM) | 1.56 (≈ 1.66 µM) | – | 0.39 (≈ 0.416 µM) | 1.56 (≈ 1.66 µM) | 50 (≈ 53.3 µM) | 100 (≈ 107 µM) | CC[C@H]1OC(=O)[C@H](C)[C@@H](OC(=O)N2C(=O)OC[C@@H]2C)[C@H](C)[C@@H](OC2O[C@H](C)C[C@H](N(C)CC3CC3)[C@H]2O)[C@@](C)(OC)C[C@@H](C)C(=O)[C@H](C)[C@H]2N(CCc3ccc(F)c(Cl)c3)C(=O)O[C@]12C (some centres undefined)

The remaining lines, values behind:

Compound | MIC [1] [µg/mL] | MIC [2] [µg/mL] | MIC [3] [µg/mL] | Ki [4] [nM] | MIC [5] [µg/mL] | MIC [6] [µg/mL] | MIC [7] [µg/mL] | MIC [8] [µg/mL]
CC[C@H]1OC(=O)[C@H](C)[C@@H](OC(=O)N2C(=O)OC[C@@H]2C)[C@H](C)[C@@H](OC2O[C@H](C)C[C@H](N(C)C(C)C)[C@H]2O)[C@@](C)(OC)C[C@@H](C)C(=O)[C@H](C)[C@H]2N(CCc3ccc(Cl)cc3)C(=O)O[C@]12C (some centres undefined) | 0.02 (≈ 0.022 µM) | – | 0.78 (≈ 0.859 µM) | – | 0.1 (≈ 0.11 µM) | 0.78 (≈ 0.859 µM) | 25 (≈ 27.5 µM) | 25 (≈ 27.5 µM)
CC[C@H]1OC(=O)[C@H](C)[C@@H](OC2C[C@@](C)(OC)[C@@H](O)[C@H](C)O2)[C@H](C)[C@@H](OC2O[C@H](C)C[C@H](N(C)C(C)C)[C@H]2O)[C@@](C)(OC)C[C@@H](C)C(=O)[C@H](C)[C@H]2N(CCc3ccc(Cl)cc3)C(=O)O[C@]12C (some centres undefined) | – | 0.02 (≈ 0.0213 µM) | – | – | 0.2 (≈ 0.213 µM) | 0.2 (≈ 0.213 µM) | 1.56 (≈ 1.66 µM) | 1.56 (≈ 1.66 µM)
CC[C@H]1OC(=O)[C@H](C)[C@@H](OC(=O)N2C(=O)OC[C@@H]2C)[C@H](C)[C@@H](OC2O[C@H](C)C[C@H](N(C)CC3CC3)[C@H]2O)[C@@](C)(OC)C[C@@H](C)C(=O)[C@H](C)[C@H]2N(CCc3ccc(Cl)cc3)C(=O)O[C@]12C (some centres undefined) | 0.78 (≈ 0.847 µM) | 1.56 (≈ 1.69 µM) | 12.5 (≈ 13.6 µM) | 18.6 | 0.78 (≈ 0.847 µM) | 3.1 (≈ 3.37 µM) | > 100 | 100 (≈ 109 µM)
CC[C@H]1OC(=O)[C@H](C)[C@@H](OC2C[C@@](C)(OC)[C@@H](O)[C@H](C)O2)[C@H](C)[C@@H](OC2O[C@H](C)C[C@H](N(CC3CC3)CC3CC3)[C@H]2O)[C@@](C)(OC)C[C@@H](C)C(=O)[C@H](C)[C@H]2N(CCc3ccc(F)c(Cl)c3)C(=O)O[C@]12C (some centres undefined) | 25 (≈ 24.8 µM) | 50 (≈ 49.5 µM) | 25 (≈ 24.8 µM) | 0.851 | 25 (≈ 24.8 µM) | 25 (≈ 24.8 µM) | > 100 | > 100
CC[C@H]1OC(=O)[C@H](C)[C@@H](OC(=O)N2C(=O)OC[C@@H]2C)[C@H](C)[C@@H](OC2O[C@H](C)C[C@H](N(C)C3CCCCC3)[C@H]2O)[C@@](C)(OC)C[C@@H](C)C(=O)[C@H](C)[C@H]2N(CCc3ccc(Cl)c(Cl)c3)C(=O)O[C@]12C (some centres undefined) | 6.2 (≈ 6.31 µM) | 6.2 (≈ 6.31 µM) | > 100 | 7.24 | 6.2 (≈ 6.31 µM) | > 100 | > 100 | > 100
CCC(C)N(CC1CC1)[C@H]1C[C@@H](C)OC(O[C@@H]2[C@@H](C)[C@H](OC3C[C@@](C)(OC)[C@@H](O)[C@H](C)O3)[C@@H](C)C(=O)O[C@H](CC)[C@@]3(C)OC(=O)N(CCc4ccc(Cl)cc4)[C@@H]3[C@@H](C)C(=O)[C@H](C)C[C@]2(C)OC)[C@@H]1O (some centres undefined) | > 100 | > 100 | > 100 | 27.5 | > 100 | > 100 | > 100 | > 100
CC[C@H]1OC(=O)[C@H](C)[C@@H](OC(=O)N2C(=O)OC[C@@H]2C)[C@H](C)[C@@H](OC2O[C@H](C)C[C@H](N(C)C3CCCC3)[C@H]2O)[C@@](C)(OC)C[C@@H](C)C(=O)[C@H](C)[C@H]2N(CCc3ccc(Cl)cc3)C(=O)O[C@]12C (some centres undefined) | 3.1 (≈ 3.32 µM) | 3.1 (≈ 3.32 µM) | 12.5 (≈ 13.4 µM) | 3.89 | 3.1 (≈ 3.32 µM) | 6.2 (≈ 6.63 µM) | > 100 | > 100
CC[C@H]1OC(=O)[C@H](C)[C@@H](O)[C@H](C)[C@@H](OC2O[C@H](C)C[C@H](N(C)C)[C@H]2O)[C@@](C)(OC)C[C@@H](C)C(=O)[C@H](C)[C@H]2N(CCc3ccc(Cl)cc3)C(=O)O[C@]12C (some centres undefined) | – | 0.02 (≈ 0.0265 µM) | 0.78 (≈ 1.04 µM) | – | – | 1.56 (≈ 2.07 µM) | 12.5 (≈ 16.6 µM) | 12.5 (≈ 16.6 µM)
CC[C@H]1OC(=O)[C@H](C)[C@@H](OC(=O)N2C(=O)OC[C@@H]2C)[C@H](C)[C@@H](OC2O[C@H](C)C[C@H](N(CC3CC3)CC3CC3)[C@H]2O)[C@@](C)(OC)C[C@@H](C)C(=O)[C@H](C)[C@H]2N(CCc3ccc(Cl)c(Cl)c3)C(=O)O[C@]12C (some centres undefined) | 50 (≈ 50.2 µM) | 100 (≈ 100 µM) | 100 (≈ 100 µM) | 1.29 | 50 (≈ 50.2 µM) | > 100 | > 100 | > 100
CC[C@H]1OC(=O)[C@H](C)[C@@H](O[C@H]2C[C@@](C)(OC)[C@@H](O)[C@H](C)O2)[C@H](C)[C@@H](O[C@@H]2O[C@H](C)C[C@H](N(C)C)[C@H]2O)[C@](C)(O)C[C@@H](C)C(=O)[C@H](C)[C@@H](O)[C@]1(C)O [ERYTHROMYCIN] | 0.05 (≈ 0.0681 µM) | 0.05 (≈ 0.0681 µM) | 0.02 (≈ 0.0273 µM) | – | 0.05 (≈ 0.0681 µM) | 0.05 (≈ 0.0681 µM) | 0.2 (≈ 0.273 µM) | 0.2 (≈ 0.273 µM)
